# Reference: patent publication US7071293B1, “Alpha helical peptides with broad spectrum antimicrobial activity that are insensitive to salt” (priority 1999, dated 2006)
# Read-outs that look alike come from different tables or passages of the source. Ends that are not written are not given here.
# Tests used:
# [1] = tested on: P. aeruginosa PAO1; conditions: for EC50 P. aeruginosa PAO1 μg/ml ± sem: average ± sem
# [2] = tested on: E. coli ML-35p; conditions: for E. coli ML-35p MIC, 0 mM NaCl: underlay 0 mM NaCl; for E. coli ML-35p MIC, 0 mM NaCl / E. coli ML-35p MIC, 175 mM NaCl: Table 15; for E. coli ML-35p MIC, 175 mM NaCl: underlay 175 mM NaCl
# [3] = tested on: P. aeruginosa MR 3007
# [4] = tested on: S. aureus 930918-3
# [5] = tested on: MRSA ATCC 33591
# [6] = tested on: E. coli DH-5α; conditions: DH-5α
# [7] = tested on: P. aeruginosa PA-01
# [8] = tested on: E. coli DH5α
# [9] = ionic strength 25 mM, avg ± sem
# [10] = ionic strength 175 mM, avg ± sem
substance,measurement,setting,value
LRRIIRKIIHIIK-NH2 [SMAP29X-13A],EC50 P. aeruginosa PAO1 μg/ml ± sem,[1]; ionic strength 25 mM,0.27 ± 0.03 µg/mL
same,EC50 P. aeruginosa PAO1 μg/ml ± sem,[1]; ionic strength 175 mM,2.23 ± 0.41 µg/mL
LRRIIRKIIHIIKK [Peptide 12],"E. coli ML-35p MIC, 0 mM NaCl",[2],0.68 ± 0.07 µg/mL
same,"E. coli ML-35p MIC, 175 mM NaCl",[2],>79.1 µg/mL
same,"P. aeruginosa MR-3007 MIC, 0 mM NaCl",[3],0.98 ± 0.08 µg/mL
same,"P. aeruginosa MR-3007 MIC, 175 mM NaCl",[3],46.3 ± 9.1 µg/mL
same,"S. aureus 930918-3 MIC, 0 mM NaCl",[4],2.40 ± 0.17 µg/mL
same,"S. aureus 930918-3 MIC, 175 mM NaCl",[4],79.1 ± 0 µg/mL
same,"MRSA ATCC 33591 MIC, 0 mM NaCl",[5],11.0 ± 3.96 µg/mL
same,"MRSA ATCC 33591 MIC, 175 mM NaCl",[5],>79.1 µg/mL
same,"E. coli DH-5α MIC, 0 mM NaCl",[6],1.36 ± 0.19 µg/mL
same,"E. coli DH-5α MIC, 175 mM NaCl",[6],19.1 ± 5.0 µg/mL
same,"P. aeruginosa PA-01 MIC, 0 mM NaCl",[7],0.98 ± 0.05 µg/mL
same,"P. aeruginosa PA-01 MIC, 175 mM NaCl",[7],11.9 ± 4.7 µg/mL
LRRIIRKIIHIIKK [SMAP29X-14B],EC50 P. aeruginosa PAO1,[1]; [9],0.55 ± 0.03 µg/mL
same,EC50 P. aeruginosa PAO1,[1]; [10],5.55 ± 0.42 µg/mL
NIRRIIRKIIHIIKKY [SMAP29X-16D],EC50 P. aeruginosa PAO1,[1]; [9],0.70 ± 0.36 µg/mL
same,EC50 P. aeruginosa PAO1,[1]; [10],3.64 ± 1.75 µg/mL
NLRRIIRKIIHIIKKY [SMAP29X-16A],EC50 P. aeruginosa PAO1,[1]; [9],0.90 ± 0.54 µg/mL
same,EC50 P. aeruginosa PAO1,[1]; [10],1.78 ± 0.26 µg/mL
NLRRIIRKIIHIIKKY-NH2 [SMAP29X-16B],EC50 P. aeruginosa PAO1,[1]; [9],0.75 µg/mL
same,EC50 P. aeruginosa PAO1,[1]; [10],3.78 µg/mL
RGLRALGRKIAHGVKAYG [SMAP29-18AA],EC50 P. aeruginosa PAO1,[1]; [9],0.62 ± 0.13 µg/mL
same,EC50 P. aeruginosa PAO1,[1]; [10],7.85 ± 1.16 µg/mL
RIIRKIIHII-NH2 [SMAP29X-10],EC50 P. aeruginosa PAO1 μg/ml ± sem,[1]; ionic strength 25 mM,0.51 ± 0.00 µg/mL
same,EC50 P. aeruginosa PAO1 μg/ml ± sem,[1]; ionic strength 175 mM,18.67 ± 0.97 µg/mL
RIIRKIIHIIK-NH2 [SMAP29X-11B],EC50 P. aeruginosa PAO1 μg/ml ± sem,[1]; ionic strength 25 mM,0.46 ± 0.02 µg/mL
same,EC50 P. aeruginosa PAO1 μg/ml ± sem,[1]; ionic strength 175 mM,10.42 ± 0.26 µg/mL
RKFRNKIKEKLKKIG [CAP18-15a],EC50 P. aeruginosa PAO1,[1]; PAO1,>20 µg/mL
same,EC50 P. aeruginosa PAO1,[1]; [9],1.54 ± 0.43 µg/mL
same,EC50,[8]; DH5α,240 ± 70 nM
same,EC50 E. coli DH5α,[8]; [9],0.46 ± 0.12 µg/mL
same,MIC E. coli [NaCl] High,"[2]; high salt underlay (10 mM sodium phosphate buffer +100 mM NaCl, pH 7.4), Table 13",0.7 µg/mL
same,MIC E. coli [NaCl] Low,"[2]; low salt underlay (10 mM sodium phosphate buffer, pH 7.4), Table 13",0.2 µg/mL
same,MIC P. aeruginosa [NaCl] High,"[3]; MR 3007, pH 7.4",5.3 µg/mL
same,MIC P. aeruginosa [NaCl] Low,"[3]; MR 3007, pH 7.4",1.5 µg/mL
same,MIC S. aureus [NaCl] High,"[4]; 930918-3, pH 7.4",>250 µg/mL
same,MIC S. aureus [NaCl] Low,"[4]; 930918-3, pH 7.4",19.5 µg/mL
same,MIC MRSA [NaCl] High,"[5]; ATCC 33591, pH 7.4",>250 µg/mL
same,MIC MRSA [NaCl] Low,"[5]; ATCC 33591, pH 7.4",>250 µg/mL
RRIIRKIIHII-NH2 [SMAP29X-11A],EC50 P. aeruginosa PAO1 μg/ml ± sem,[1]; ionic strength 25 mM,0.38 ± 0.04 µg/mL
same,EC50 P. aeruginosa PAO1 μg/ml ± sem,[1]; ionic strength 175 mM,4.92 ± 0.43 µg/mL
RRIIRKIIHIIK-NH2 [Peptide 17],"E. coli ML-35p MIC, 0 mM NaCl",[2],0.29 ± 0.06 µg/mL
same,"E. coli ML-35p MIC, 175 mM NaCl",[2],>79.1 µg/mL
same,"P. aeruginosa MR-3007 MIC, 0 mM NaCl",[3],0.72 ± 0.15 µg/mL
same,"P. aeruginosa MR-3007 MIC, 175 mM NaCl",[3],>79.1 µg/mL
same,"S. aureus 930918-3 MIC, 0 mM NaCl",[4],2.29 ± 0.07 µg/mL
same,"S. aureus 930918-3 MIC, 175 mM NaCl",[4],>79.1 µg/mL
same,"MRSA ATCC 33591 MIC, 0 mM NaCl",[5],11.9 ± 4.7 µg/mL
same,"MRSA ATCC 33591 MIC, 175 mM NaCl",[5],>79.1 µg/mL
same,"E. coli DH-5α MIC, 0 mM NaCl",[6],0.51 ± 0.09 µg/mL
same,"E. coli DH-5α MIC, 175 mM NaCl",[6],46.1 ± 16.1 µg/mL
same,"P. aeruginosa PA-01 MIC, 0 mM NaCl",[7],0.69 ± 0.08 µg/mL
same,"P. aeruginosa PA-01 MIC, 175 mM NaCl",[7],17.2 ± 4.6 µg/mL
RRIIRKIIHIIK-NH2 [SMAP29X-12],EC50 P. aeruginosa PAO1 μg/ml ± sem,[1]; ionic strength 25 mM,0.31 ± 0.01 µg/mL
same,EC50 P. aeruginosa PAO1 μg/ml ± sem,[1]; ionic strength 175 mM,3.83 ± 0.22 µg/mL
RRIIRKIIHIIKK-NH2 [SMAP29X-13B],EC50 P. aeruginosa PAO1 μg/ml ± sem,[1]; ionic strength 25 mM,0.22 ± 0.02 µg/mL
same,EC50 P. aeruginosa PAO1 μg/ml ± sem,[1]; ionic strength 175 mM,1.51 ± 0.09 µg/mL
